Test results: patent US8946436B2, “Oxazolidinone compounds and their uses in preparation of antibiotics” (Sichuan Gooddoctor Pharmaceutical Group Co., Ltd., priority 2011, dated 2015)
Converted amounts (≈) assume the structure as drawn. Like-named read-outs stand apart in the source and are kept apart here.

Legend:
S. aureus = test: In vitro antibacterial activity (MIC), S. aureus; assay type: cell-based, Staphylococcus Aureus; settings: for MIC: S. aureus (12 strains)
Procedure: Strains: strain ATCC25923 is available from the American Type Culture Collection, and is used as a standard strain of Staphylococcus Aureus;
Liquid medium: MH bouillon culture medium, a product of BD Company, United States of American;
Tested Compounds: compounds 12a, 13 and 14 prepared according to the methods above, and Linezolid purchased from Pfizer.
The test strain was inoculated into the liquid medium and cultured at 37° C. for 16-18 h. The culture liquid and MH medium were put into two blank wells of a 96-well plate, respectively. Then, the absorptions thereof were measured by a Microplate reader. The difference between the absorption values of the culture liquid and MH medium is the adsorption of the bacteria. The concentration of the culture liquid can be calculated according to the formula of 1OD=50 million CFU/mL. The culture liquid was diluted with the MH bouillon culture medium to 5000 CFU/mL for further use.
Compounds 12a, 13 and 14 were dissolved in DMSO to 1 mg/mL, and then filtered with a 0.22 μm filter to obtain the compound solutions. And then they were gradually diluted to a desired concentration (10× final concentration) with the liquid medium, so as to obtain a series of dilutions. The final concentration grade of the dilutions of each tested compound consists of 14 concentrations, which includes: 0.03125 μg/mL, […], 0.125 μg/mL, 0.25 μg/mL, […], 1 μg/mL, 2 μg/mL, 4 μg/mL, 8 μg/mL, 16 μg/mL, 32 μg/mL, 64 μg/mL, 128 μg/mL and 256 μg/mL.
10 μL of each of the compound dilutions above was added into a well of a 96-well plate. 90 μL of the culture liquid (5000 CFU/mL) was added into each of the wells, respectively, mixed with the dilutions to render the tested compound concentration to the final concentration. The resulted mixture was incubated at 37° C. for 16-18 h, and then the OD630 thereof was measured. A culture liquid free of the tested compounds is used as a blank control, and three parallel tests with the same concentration of each compound were performed. The minimum inhibitory concentration (MIC) of each compound on the standard strain of Staphylococcus Aureus and other test strains was determined. Specifically, among the culture liquid contained in the wells of the micro-plate, the first three lowest concentrations under which growth of the test strains could be observed were chose for further evaluation of the MIC. A culture liquid free of tested compounds was used as a blank control. Each of the culture liquids was homogenized independently, and then was diluted with a sterile saline. Each of the diluted culture liquids was plated onto a MH bouillon plate and incubated at 37° C. for 20 h in incubator. After the incubation, the number of the colonies on each plate was counted. As compared with the blank control group, the lowest concentration of each of the test compound groups, at which 80% reduction in the colony number of the strains was achieved, was recorded as the MIC.

ATCC 25923 = test: Mouse model of systemic infection; assay type: in vivo, C57 mice; settings: intravenous
Text: Animal model: SPF grade C57 mice, 4-6 weeks age, weight 18-22 g, ten mice per group;
Infectious strain: ATCC 25923, grown in a MHB medium to a period of logarithmic growth;
Test compounds: Compound 13f prepared according to the methods above, and Linezolid as a control, purchased from Airsea Pharmaceutical Ltd., (Taizhou, ZheJiang Province, China;
Formulation and dosage of the test compounds: To evaluate the treating effect of compound 13f, an animal model of intraperitoneal infection by bacteria was established and grouped into 13f group and Linezolid group. The same dosage of the compound 13f and Linezolid was administrated to the groups, respectively.
The minimum lethal dose (MLD) was determined as follows: Bacterial stock liquid cultured overnight was adjusted to 0.5 McFarland with saline solution, and subsequently subjected to a proper serial dilution. 3-5 dilutions with different concentrations of the bacteria were used to infect mice (10 mice per concentration), respectively, by intraperitoneal injection with a volume of 0.5 mL of the dilution. The minimum concentration at which 100% mice were dead was regarded as MLD. For purpose of ensuring experimental reliability, two control groups (MLD control group and 1/10MLD control group) were used in this experiment. The mortality of the MLD control group was 100%, while the mortality of the 1/10OMLD control group was 30%. […] To enhance virulence of the infectious bacteria, 15% yeast was added into the bacterial liquid for infection.
Experimental animal and grouping: SPF grade C57 mice (purchased from Experiment Animal Center, West China Hospital of Sichuan University), 4-6 weeks old, weighting 18-22 g, were randomly divided into groups, including model group, and treating groups consisting of group administrated with compound 13f at 5 mg/kg, group administrated with compound 13f at 10 mg/kg, group administrated with Linezolid at 5 mg/kg and group administrated with Linezolid at 10 mg/kg, with ten mice per group.
1) Based on the MLD result from the preliminary experiment, the mice were infected by intraperitoneal injection with a saline suspension of ATCC 25923, containing 15% yeast. Injection dosage of the bacteria was 0.2 OD/mice.
2) Administration time and frequency: The above mentioned compounds (compound 13f and Linezolid) were administrated to the mice of the treating groups 1 hour before and 4 hour after the infection, respectively. Meanwhile, the mice of the model group received only solvents in the same volume as that of the compound solution administrated in the treating group. The treating groups includes compound 13f group at 10 mg/kg, compound 13f group at 5 mg/kg, Linezolid group at 10 mg/kg and Linezolid group at 5 mg/kg.
3) Administration route: intravenous injection;
4) Dissolving compounds: The compounds were dissolved with 30% water solution of hydroxypropyl-β-cyclodextrin;
5) Efficacy observation: After infection and administration, the appetites, activities, symptoms and signs of the test mice were observed regularly. The survival rate was monitored every 4 h. The observation lasted for 7 days. During this period of observation, dissection of dying mice was immediately carried out after their death, and a histopathological examination was conducted, if necessary.
6) Evaluation: Main indexes include survival time, survival rate, and CFU count of organ and blood.

[1] = 10 mg/kg, 1 hour before and 4 hour after infection, 7 days observation

Row | Compound | MIC (S. aureus; Staphylococcus aureus, read-out: MIC) [µg/mL] | activity ranking among test compounds (S. aureus; Table 2: S. aureus, S. pneumoniae, S. agalactiae and E. faecalis) | in vivo treatment effect and protection effect compared with Linezolid (ATCC 25923; 5 mg/kg) | time after infection at which death of mice was observed (ATCC 25923; 5 mg/kg) [h] | mortality (ATCC 25923; 5 mg/kg, in 24 h) [%] | therapeutic effect compared with linezolid (ATCC 25923; 10 mg/kg) | survival rate (ATCC 25923; [1]) [%] | MIC (S. aureus) [µg/mL] | mortality (ATCC 25923; 5 mg/kg, in 48 h) [%] | mortality (ATCC 25923; 5 mg/kg, in 72 h) [%] | protection rate (ATCC 25923; [1]) [%]
1 | CC(=O)NC[C@H]1CN(c2ccc(-n3cc(-c4ccccn4)cn3)c(F)c2)C(=O)O1 [Compound 13f, (S)-N-((3-(3-fluoro-4-(4-(pyridin-2-yl)-1H-pyrazol-1-yl)phenyl)-2-oxooxazolidin-5-yl)methyl)acetamide] | 0.25 to 2 (≈ 0.632 to 5.06 µM) | most optimum activity | better in vivo treatment effect and protection effect | 5 | 20 | same therapeutic effect as linezolid | 100 | – | – | – | –
2 | CC(=O)NC[C@H]1CN(c2ccc(N3CCOCC3)c(F)c2)C(=O)O1 [Linezolid, reference compound] | – | – | – | 5 | 50 | – | – | 4 to 32 | 70 | 100 | 100
